Here are results for one compound from US12630501B2, “Anti-fibrotic compounds and use thereof” (HADASIT MEDICAL RESEARCH SERVICES AND DEVELOPMENT LTD., priority 2019, dated 2026).

The subject of test [1] is BLM-treated C57BL/6 WT mice. The experiment in a line: Bleomycin-induced lung fibrosis in mice, CMH by oropharyngeal aspiration. The test is classed as in vivo, mouse. The text has this:
Animals C57BL/6 and mutant mice, male, 11-12 weeks old (Harlan Sprague Dawley, Indianapolis, IN, USA) were used. SIRT1 dominant-negative mice carry a point mutation (H355Y), Sirt1^tm2.1Mcby (Sirt1^y/y, RBRC05324, RIKEN Bio Resource Center, Japan) that ablates SIRT1 enzymatic activity, described in Gabay et al., Arthritis Rheum. 65: 159-166, 2013; and Seifert et al., FASEB J. 26: 555-566, 2012. Mice were maintained under specific pathogen-free conditions with adherence to institutional guidelines for the care and use of laboratory animals. Chimeric mice with SIRT1-deficient mice and WT hematopoietic cells were generated as described in Golan-Gerstl et al., Am. J. Respir Cell Mol. Biol. 36: 270-275, 2007.
Oropharyngeal aspiration (OA) and induction of lung fibrosis in mice Oropharyngeal aspiration of BLM (OA-BLM) was performed as detailed in Golan-Gerstl et al., Am. J. Respir. Cell Mol. Biol. 36: 270-275, 2007. Lung fibrosis was assessed via semi-quantitative morphological index (Wallach-Dayan et al., PNAS USA 104: 20460-20465, 2007). Lung collagen was measured using a Sircol Collagen Assay kit (Biocolor, Belfast, Northern Ireland), and standard protocol of trichrome staining. Isolation of mouse lung myofibroblasts Myofibroblast isolation and culture was performed as described in Golan-Gerstl et al., Am. J. Respir. Cell Mol. Biol. 36: 270-275, 2007; and Wallach-Dayan et al., PNAS USA 104: 20460-20465, 2007.
Immunohistochemistry (IHC) staining of lung tissue sections was performed as described in Golan-Gerstl et al., Am. J. Respir Cell Mol. Biol. 36: 270-275, 2007; and Wallach-Dayan et al., PNAS USA 104: 20460-20465, 2007.
CMH (30 μM) or control vehicle 4% DMSO were administered into WT mice by a second OA on day 6 of OA-BLM (0.05 mU), or control-saline (FIG. 6A). Similar to SIRT1^y/y mice, BLM-treated mice and control saline-treated mice (FIG. 6B) that were exposed to CMH vs. vehicle alone, had low SIRT1 and FLIP expression in lung sections. Myofibroblasts isolated from lungs of BLM-treated mice had decreased Ku70 binding to SIRT1 from 1.2 to 0.6 (FIG. 6C), increased Ku70 acetylation from an OD of 0.1 to 0.91 (FIG. 6D), and decreased Ku70/FLIP complex from an OD of 2.43 to 1.55 (FIG. 6E). Compared to vehicle, CMH-treated mice reduced H&E and collagen-trichrome staining (FIG. 6F, upper and lower panels, respectively), SMI grade (average SMI from 2 to 1.1, FIG. 6G), and collagen in Sircol assay (from 200 μg to only 50 μg, FIG. 6H). Thus, In vivo inhibition of SIRT1 activity, FLIP expression, and lung fibrosis were detected in CMH-BLM-treated mice and attenuation of deacetylation activity on Ku70, a decrease in Ku70/FLIP complex, and FLIP expression levels were detected in myofibroblasts isolated from lungs of CMH-BLM-treated mice. SIRT1-mediated Ku70-deacetylation may therefore stabilize FLIP via Ku70/FLIP complex in lung myofibroblasts promoting fibrosis, which can be inhibited by CMH.

Another test concerns the target T1, HDAC6 (Homo sapiens, UniProt Q9UBN7).
T1 sequence (Q9UBN7 1-1215): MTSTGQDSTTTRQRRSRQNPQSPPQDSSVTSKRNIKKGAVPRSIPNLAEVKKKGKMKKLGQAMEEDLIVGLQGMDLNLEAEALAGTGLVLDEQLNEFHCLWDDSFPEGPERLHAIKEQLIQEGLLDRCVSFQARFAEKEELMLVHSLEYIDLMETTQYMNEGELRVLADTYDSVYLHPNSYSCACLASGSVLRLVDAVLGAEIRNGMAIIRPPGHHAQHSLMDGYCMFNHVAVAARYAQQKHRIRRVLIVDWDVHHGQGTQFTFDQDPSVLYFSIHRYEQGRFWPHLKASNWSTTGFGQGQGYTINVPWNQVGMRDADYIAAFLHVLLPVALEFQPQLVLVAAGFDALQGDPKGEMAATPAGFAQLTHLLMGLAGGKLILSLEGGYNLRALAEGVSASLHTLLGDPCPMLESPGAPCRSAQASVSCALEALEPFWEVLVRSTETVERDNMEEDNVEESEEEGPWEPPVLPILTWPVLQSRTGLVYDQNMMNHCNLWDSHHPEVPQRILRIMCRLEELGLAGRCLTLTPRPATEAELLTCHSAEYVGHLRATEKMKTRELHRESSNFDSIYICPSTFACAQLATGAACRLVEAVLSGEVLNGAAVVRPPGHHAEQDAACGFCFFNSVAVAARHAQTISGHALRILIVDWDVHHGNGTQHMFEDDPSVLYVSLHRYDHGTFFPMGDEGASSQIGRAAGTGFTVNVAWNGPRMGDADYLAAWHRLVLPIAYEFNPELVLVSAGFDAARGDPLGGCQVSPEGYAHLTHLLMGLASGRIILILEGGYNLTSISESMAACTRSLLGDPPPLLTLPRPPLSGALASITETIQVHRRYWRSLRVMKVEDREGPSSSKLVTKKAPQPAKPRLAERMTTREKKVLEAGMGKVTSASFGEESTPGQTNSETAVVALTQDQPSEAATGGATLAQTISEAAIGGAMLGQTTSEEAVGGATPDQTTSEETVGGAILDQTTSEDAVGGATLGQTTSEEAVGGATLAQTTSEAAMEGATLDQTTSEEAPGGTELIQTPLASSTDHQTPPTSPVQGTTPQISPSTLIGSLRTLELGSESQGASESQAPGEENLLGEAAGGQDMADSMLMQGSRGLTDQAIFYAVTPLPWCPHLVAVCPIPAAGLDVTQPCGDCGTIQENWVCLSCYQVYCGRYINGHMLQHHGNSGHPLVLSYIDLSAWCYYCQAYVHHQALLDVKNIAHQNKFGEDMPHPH
As to conditions: prostate cancer cells; cited from earlier work.

A further test concerns the target HDAC1 (Homo sapiens, UniProt Q13547). The following applies: prostate cancer cells; cited from earlier work.
Test [2] concerns breast cancer cells and pancreatic cancer cells. The following applies: cited from earlier work.
The mark [3] stands for this setting: CMH 30 μM by OA on day 6 of OA-BLM, vs. vehicle.

Structures are written as SMILES.

HDAC1, sequence (Q13547 whole entry, species assumed): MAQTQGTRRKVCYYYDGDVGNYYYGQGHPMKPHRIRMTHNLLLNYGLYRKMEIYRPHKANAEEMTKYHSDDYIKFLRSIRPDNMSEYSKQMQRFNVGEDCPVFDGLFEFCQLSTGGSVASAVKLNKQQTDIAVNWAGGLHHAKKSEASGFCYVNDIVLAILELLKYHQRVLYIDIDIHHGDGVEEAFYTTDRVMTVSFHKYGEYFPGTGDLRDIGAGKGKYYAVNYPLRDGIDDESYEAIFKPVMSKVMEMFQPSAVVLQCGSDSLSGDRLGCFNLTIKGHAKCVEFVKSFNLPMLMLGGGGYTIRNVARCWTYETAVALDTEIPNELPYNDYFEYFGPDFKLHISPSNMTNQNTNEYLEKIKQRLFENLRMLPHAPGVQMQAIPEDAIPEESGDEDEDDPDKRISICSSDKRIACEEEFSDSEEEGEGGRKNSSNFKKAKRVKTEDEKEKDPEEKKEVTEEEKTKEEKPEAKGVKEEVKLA

In the case of `Cc1cc(Cl)ccc1OCCCC(=O)NO` [CMH, 4-(4-chloro-2-methylphenoxy)-N-hydroxybutanamide], the “H&E and collagen-trichrome staining of lung tissue sections” value in test [1] (CMH 30 μM OA day 6, day 14 post BLM, compared to vehicle) is reported as “reduced”. Moreover, in test [1] (CMH 30 μM OA day 6, day 14 post BLM, vehicle 200 μg), the “Collagen in Sircol assay” value came out at 50 µg. In addition, the “Average SMI grade (semi-quantitative morphological index)” value in test [1] (CMH 30 μM OA day 6, day 14 post BLM, vehicle 2) is recorded as 1.1. For the same compound, in test [1] (setting [3]), the “FLIP expression in lung sections (IHC)” value is given as “low” and the “SIRT1 expression in lung sections (IHC)” value is on record as “low”. Further, the “Inhibition of HDAC6” value on HDAC6 is recorded as “Selective inhibition”. In addition, the “Inhibition of HDAC1” value on HDAC1 is reported as “not inhibited”. Further, in test [2], the Apoptosis entry was “increase” and the FLIP expression result is given as “downregulate”.
